Source: ChEMBL document CHEMBL3045585, “Combinatorial approach: identification of potential antifungals from triazole minilibraries” (2011)
Values after ≈ are worked out from the molar mass of the structure shown.

What was measured:
Format in all cases: functional
Fusarium oxysporum = assay: Antifungal activity against Fusarium oxysporum NCIM 1008 by serial dilution method
Penicillium chrysogenum = assay: Antifungal activity against Penicillium chrysogenum NCIM 725 by serial dilution method
Aspergillus niger = assay: Antifungal activity against Aspergillus niger NCIM 945 by serial dilution method
Aspergillus flavus = assay: Antifungal activity against Aspergillus flavus NCIM 536 by serial dilution method

Row | SMILES | MIC (Fusarium oxysporum) [µg/mL] | MIC (Penicillium chrysogenum) [µg/mL] | MIC (Aspergillus niger) [µg/mL] | MIC (Aspergillus flavus) [µg/mL]
1 | COc1ccc(/C=N/n2c(SCc3ccccc3)nnc2-c2ccccc2N)cc1 | 250 (≈ 602 µM) | 125 (≈ 301 µM) | 62 (≈ 149 µM) | 32 (≈ 77 µM)
2 | Nc1ccccc1-c1nnc(SCc2ccccc2)n1/N=C/c1ccc(Cl)cc1 | 62 (≈ 148 µM) | 31 (≈ 73.8 µM) | 125 (≈ 298 µM) | 125 (≈ 298 µM)
3 | COc1ccc(/C=N/n2c(SCc3ccccc3)nnc2-c2ccncc2)cc1 | 250 (≈ 623 µM) | 125 (≈ 311 µM) | 31 (≈ 77.2 µM) | 250 (≈ 623 µM)
4 | CN(C)c1ccc(/C=N/n2c(SCc3ccccc3)nnc2-c2ccccc2N)cc1 | 32 (≈ 74.7 µM) | 250 (≈ 583 µM) | 62 (≈ 145 µM) | 125 (≈ 292 µM)
